How the values were obtained:
[1] = target: T1, Serine/threonine-protein kinase 36 (Homo sapiens) (UniProt Q9NRP7); assay: Selectivity interaction (KinomeScan (DiscoverX)) EUB0000595a STK36; conditions: at 10 µM
T1 sequence (whole entry): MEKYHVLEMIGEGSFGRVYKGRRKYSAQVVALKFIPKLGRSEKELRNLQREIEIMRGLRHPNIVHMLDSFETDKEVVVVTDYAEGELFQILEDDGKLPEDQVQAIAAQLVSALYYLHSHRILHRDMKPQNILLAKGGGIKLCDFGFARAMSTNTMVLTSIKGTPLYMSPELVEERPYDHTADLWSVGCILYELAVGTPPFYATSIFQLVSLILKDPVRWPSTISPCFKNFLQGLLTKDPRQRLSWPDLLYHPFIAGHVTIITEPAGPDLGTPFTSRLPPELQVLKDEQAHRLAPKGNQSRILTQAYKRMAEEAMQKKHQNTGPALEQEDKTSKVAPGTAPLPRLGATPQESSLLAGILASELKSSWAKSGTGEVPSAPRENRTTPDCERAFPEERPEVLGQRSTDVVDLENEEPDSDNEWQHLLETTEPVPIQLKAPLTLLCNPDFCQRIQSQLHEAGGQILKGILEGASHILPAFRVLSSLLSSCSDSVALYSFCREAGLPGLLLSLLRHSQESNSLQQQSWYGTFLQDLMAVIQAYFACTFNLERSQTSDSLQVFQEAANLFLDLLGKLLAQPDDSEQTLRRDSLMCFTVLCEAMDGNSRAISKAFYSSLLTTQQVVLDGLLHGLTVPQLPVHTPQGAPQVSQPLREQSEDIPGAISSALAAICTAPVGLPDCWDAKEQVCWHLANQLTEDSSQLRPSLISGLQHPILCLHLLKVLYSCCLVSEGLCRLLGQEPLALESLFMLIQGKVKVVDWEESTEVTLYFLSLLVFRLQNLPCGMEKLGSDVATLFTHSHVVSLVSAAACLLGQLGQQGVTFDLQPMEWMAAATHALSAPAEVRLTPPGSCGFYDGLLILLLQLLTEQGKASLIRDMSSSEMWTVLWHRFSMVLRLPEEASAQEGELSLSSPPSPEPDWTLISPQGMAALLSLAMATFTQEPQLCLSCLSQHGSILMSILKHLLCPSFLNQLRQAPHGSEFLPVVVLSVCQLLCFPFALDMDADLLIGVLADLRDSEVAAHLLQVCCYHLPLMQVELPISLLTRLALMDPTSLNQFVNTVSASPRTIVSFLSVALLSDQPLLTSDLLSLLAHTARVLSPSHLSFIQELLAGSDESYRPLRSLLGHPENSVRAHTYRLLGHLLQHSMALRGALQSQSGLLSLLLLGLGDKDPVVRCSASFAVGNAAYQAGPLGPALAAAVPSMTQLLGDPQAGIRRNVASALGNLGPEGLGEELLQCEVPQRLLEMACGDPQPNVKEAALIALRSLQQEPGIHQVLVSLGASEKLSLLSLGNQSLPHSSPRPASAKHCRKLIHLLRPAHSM

[2] = target: Glycogen synthase kinase-3 beta (Homo sapiens, UniProt P49841); assay: Selectivity interaction (Millipore kinase profiler) EUB0000124b GSK3B; conditions: at 10 µM
Chain of Glycogen synthase kinase-3 beta (P49841 whole entry, looked up): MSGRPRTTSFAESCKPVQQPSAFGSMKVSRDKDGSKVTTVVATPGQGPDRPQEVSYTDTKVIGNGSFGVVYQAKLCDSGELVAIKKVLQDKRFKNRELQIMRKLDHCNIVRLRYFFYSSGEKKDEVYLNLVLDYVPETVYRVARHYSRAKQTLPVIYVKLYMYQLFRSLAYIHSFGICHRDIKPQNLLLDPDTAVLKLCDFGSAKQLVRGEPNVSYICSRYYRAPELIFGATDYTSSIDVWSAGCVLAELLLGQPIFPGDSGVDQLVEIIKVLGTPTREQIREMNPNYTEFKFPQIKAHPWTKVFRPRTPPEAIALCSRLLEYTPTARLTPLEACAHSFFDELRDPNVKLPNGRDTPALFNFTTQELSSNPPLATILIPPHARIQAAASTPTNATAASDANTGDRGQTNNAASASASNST

[3] = target: Tyrosine-protein kinase Lyn (Homo sapiens, UniProt P07948); assay: Selectivity interaction (KinomeScan (DiscoverX)) EUB0001619a LYN; conditions: at 1 µM
Chain of Tyrosine-protein kinase Lyn (P07948 2-512 limits assumed): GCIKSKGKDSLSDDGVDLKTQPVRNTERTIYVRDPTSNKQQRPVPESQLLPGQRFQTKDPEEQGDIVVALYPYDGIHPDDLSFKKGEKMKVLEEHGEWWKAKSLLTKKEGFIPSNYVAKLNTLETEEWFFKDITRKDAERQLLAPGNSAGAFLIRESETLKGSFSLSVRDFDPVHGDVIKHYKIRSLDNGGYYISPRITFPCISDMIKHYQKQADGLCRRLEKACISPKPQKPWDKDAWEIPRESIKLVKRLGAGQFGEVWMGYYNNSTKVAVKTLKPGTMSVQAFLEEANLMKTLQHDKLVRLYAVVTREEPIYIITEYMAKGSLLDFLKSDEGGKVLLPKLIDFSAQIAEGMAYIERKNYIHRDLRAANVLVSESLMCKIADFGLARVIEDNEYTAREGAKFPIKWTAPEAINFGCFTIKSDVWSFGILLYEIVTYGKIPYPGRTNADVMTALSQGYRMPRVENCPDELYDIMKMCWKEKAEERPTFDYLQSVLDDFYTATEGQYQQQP

[4] = test system: Receptor-type tyrosine-protein kinase FLT3 (Homo sapiens), P36888 [UNDEFINED MUTATION]; assay: (§1) Selectivity interaction (KinomeScan (DiscoverX)) EUB0000655a FLT3; conditions: at 10 µM
[5] = test system: T2, Receptor-type tyrosine-protein kinase FLT3 (Homo sapiens), P36888 [D835Y]; assay: as §1; conditions: at 10 µM
T2 sequence (whole entry): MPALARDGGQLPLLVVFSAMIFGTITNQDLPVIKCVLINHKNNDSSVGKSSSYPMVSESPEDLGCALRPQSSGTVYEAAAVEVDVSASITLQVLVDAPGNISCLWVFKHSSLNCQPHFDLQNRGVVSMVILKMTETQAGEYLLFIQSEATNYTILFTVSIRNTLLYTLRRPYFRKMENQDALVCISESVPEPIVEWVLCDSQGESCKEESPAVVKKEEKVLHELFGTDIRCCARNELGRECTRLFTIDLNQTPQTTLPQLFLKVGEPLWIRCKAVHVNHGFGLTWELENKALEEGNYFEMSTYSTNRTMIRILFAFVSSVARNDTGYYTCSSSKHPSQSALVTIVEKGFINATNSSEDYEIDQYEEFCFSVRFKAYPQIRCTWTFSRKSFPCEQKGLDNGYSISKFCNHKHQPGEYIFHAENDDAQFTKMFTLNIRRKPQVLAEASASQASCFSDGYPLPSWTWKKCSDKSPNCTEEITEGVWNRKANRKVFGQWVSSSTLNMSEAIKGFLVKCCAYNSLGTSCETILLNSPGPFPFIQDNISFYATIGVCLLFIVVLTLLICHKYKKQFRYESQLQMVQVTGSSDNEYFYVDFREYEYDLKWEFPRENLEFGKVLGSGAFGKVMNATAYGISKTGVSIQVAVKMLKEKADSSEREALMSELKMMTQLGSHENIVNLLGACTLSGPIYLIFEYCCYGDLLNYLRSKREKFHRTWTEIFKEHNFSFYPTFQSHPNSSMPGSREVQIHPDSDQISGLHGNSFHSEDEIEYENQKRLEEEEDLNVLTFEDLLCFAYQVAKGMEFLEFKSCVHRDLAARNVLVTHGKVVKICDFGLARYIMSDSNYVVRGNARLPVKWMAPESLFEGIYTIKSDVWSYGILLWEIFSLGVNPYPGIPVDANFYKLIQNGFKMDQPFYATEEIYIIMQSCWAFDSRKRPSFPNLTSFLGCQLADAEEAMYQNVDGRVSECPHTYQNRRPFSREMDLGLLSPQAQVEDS

In the case of COCC(=O)NC/C=C/c1ccc2ncnc(Nc3ccc(Oc4ccc(C)nc4)c(C)c3)c2c1 [CP-724714], the % of control [1] is reported as 100%.

Work on CC(=O)Nc1cccc(-n2c(=O)n(C3CC3)c(=O)c3c(Nc4ccc(I)cc4F)n(C)c(=O)c(C)c32)c1 yielded a % of control [2] of 98%.

In the case of N#Cc1cccc(-c2c[nH]c3ncnc(N4CCOCC4)c23)c1, the % of control [3] is reported as 91%.

Work on CN(C)CCOc1ccc(-c2nc(-c3ccncc3)c(-c3ccc4c(c3)CC/C4=N\O)[nH]2)cc1 yielded a % of control [4] of 78% and a % of control [5] of 64%.
